Results on 1 compound are retold here after patent US20120315654A1, “COMPOSITIONS AND METHODS FOR DETECTING CARDIOTOXICITY” (DUKE UNIVERSITY, priority 2011, published 2012).

The test system of data set [1] is HL-1 cells. Nature of the data set: LDH release cytotoxicity assay in HL-1 cells. It counts as cell-based, murine. The protocol: Toxicity was assessed by quantifying the amount of lactate dehydrogenase (LDH) present in the culture media using PROMEGA's CYTOTOX96 NON-RADIOACTIVE ASSAY (PROMEGA, Madison, Wis.). Maximum cytotoxicity was determined by measuring the amount of LDH released in cells incubated with the kit's lysis buffer. The percentage of LDH released after DOX treatment was compared with that of controls.
In general terms: LDH leaks from cells whose membrane has failed.

The subject of the next data set is cell-surface CrT protein. Nature of the data set: Cell-surface CrT protein by biotin labeling, avidin isolation and Western blot (4B9). Particulars: HL-1 cultures, 100 nmol/L DOX. The format is cell-based, human. The protocol: HL-1 cells expressing CrT protein were lysed in an ice-cold solution of 150 mmol/L NaCl; 1% Triton X-100; and 50 mmol/L Tris-HCl, pH 7.4, supplemented with protease (COMPLETE MINI protease inhibitors, ROCHE, Indianapolis, Ind.) and phosphatase inhibitors (5 mmol/L NaF; 1 mmol/L phenylmethylsulphonylfluoride; 2.5 mmol/L Na2P2O7; 50 mmol/L β-glycerol; and 1 mmol/L […], Sigma). Insoluble material was separated by centrifugation at 100,000×g for 30 min at 4° C. Solubilized protein (25 μg per lane) was mixed with Laemmli buffer containing 10% β-mercaptoethanol, separated by SDS-PAGE on a 7% gel for studies of the CrT, and then transferred to nitrocellulose membranes. […] The TATA box-binding protein band was used as a loading control and was detected using a mouse monoclonal antibody (ABCAM, Cambridge, Mass.). […] Protein abundance was quantitated by densitometry using the IMAGEJ application from NIH, and normalized to the signal obtained from CrT protein isolated from cells grown in normal culture media.
HL-1 cultures were grown in 75 cm^2 plates and transiently transfected as described for human CrT cDNA. […] Cell surface CrT protein fraction (biotinylated CrT) was then analyzed by Western blotting using an anti-CrT antibody as described above.
For orientation: Immunoblotting shows a protein as a band on a membrane.

For a further data set, the system named is RNCM. Nature of the data set: Caspase 3/7 apoptosis assay in RNCM. The format is cell-based, rat. The settings on record: 100 nmol/L DOX, up to 48 hrs. The protocol: Apoptosis was measured using PROMEGA's CASPASE-GLO 3/7 ASSAY SYSTEM (PROMEGA). Briefly, attached cells in a single 24-well plate were washed 3 times with ice-cold PBS and resuspended in 500 μl of 1% TRITON-X100; 10% glycerol; 2 mmol/L EDTA; 137 mmol/L NaCl; and 20 mmol/L Tris, pH 8.0. A mixture of 25 μL of lysate and 25 μL of caspase 3/7-assay reagent was prepared, and sequential luminescent readings were taken every 15 min for 4 hrs. Peak signal readings were normalized to protein content and plotted.

For data set [2], the system named is HL-1 cells. Nature of the data set: Quantification of Cr and high-energy phosphates in HL-1 extracts by LC-MS/MS. Particulars: HL-1, 100 nmol/L DOX, 24 hrs.

As for `COc1cccc2c1C(=O)c1c(O)c3c(c(O)c1C2=O)C[C@@](O)(C(=O)CO)C[C@@H]3O[C@H]1C[C@H](N)[C@H](O)[C@H](C)O1` [DOX, Doxorubicin], in the data set on HL-1 cells [1] (HL-1, 50 nmol/L DOX, through 48 hrs), the LDH release result is given as “not significantly elevated”. In addition, the “Increase in LDH release compared with controls” value in the data set with HL-1 cells [1] (HL-1, 100 nmol/L DOX, 24 hrs) was “approximately 10%”. The “Amount of CrT at the cell surface” value in the data set with cell-surface CrT protein was “decreased”. The “Apoptosis (caspase 3/7 activation)” value with RNCM is “No increase”. Further, in the data set on HL-1 cells [2], the ADP came out at 0.50 ± 0.07 μmols/mg prot, the AMP was determined as 0.26 ± 0.08 μmols/mg prot, the ATP came out at 0.60 ± 0.15 μmols/mg prot and the Cr is 23.01 ± 7.92 μmols/mg prot. The PCr with HL-1 cells [2] is on record as 5.94 ± 0.12 μmols/mg prot.
